Measurements published in US20040062800A1, “Sustained release pharmaceutical dosage forms with minimized ph dependent dissolution profiles” (priority 2000, published 2004).
Structures can show the parent of a compound that is named as a salt.

Assay: physchem
Assay type: physicochemical
Conditions: 25 °C
Source text: Below pH 3, the solubility increased as the pH decreased which is consistent with formation of a more soluble protonated form. […] Above pH 4, the solubility was independent of pH and remained constant (ca. 1.2 mcg/mL) up to pH 8. Above pH 8, the solubility increased with increasing pH which is due to the ionization of the quinazoline moiety.

solubility (aqueous buffer): ~1.2 µg/mL
solubility (pH 0.96, simulated gastric fluid): 236 µg/mL
solubility (pH 11.4, aqueous buffer): 992 µg/mL
SMILES: O=C1CN2Cc3c(ccc(Cl)c3Cl)N=C2N1 [anagrelide HCl]
